The conditions of series [1]: 25° C.; cited from earlier work.
Series [2] can be described thus: Drug aerosol from percussively ignited heat package: purity and recovered yield by HPLC. The format is physicochemical.

Data on three molecules can be found in patent publication US20110253135A1, “METAL COORDINATION COMPLEXES OF VOLATILE DRUGS” (ALEXZA PHARMACEUTICALS, INC., priority 2008, published 2011).

Each structure is given as a SMILES string. Read-outs that look alike come from different tables or passages of the source.

Take `CN1CCCC1c1cccnc1` (stereo not shown) [Nicotine, nicotine]: the vapor pressure in series [1] is 0.0425 mmHg.
Regarding `Cc1nnc2n1-c1ccc(Cl)cc1C(c1ccccc1)=NC2` [alprazolam], in series [2], the “purity of the resultant aerosol” value worked out at 96.8% and the “recovered yield of aerosol” value is 100%.
With `CC(C)C(=O)OCC(=O)[C@@]12O[C@H](C3CCCCC3)O[C@@H]1C[C@H]1[C@@H]3CCC4=CC(=O)C=C[C@]4(C)[C@H]3[C@@H](O)C[C@@]12C` [ciclesonide], in series [2] (percussively ignited heat package, greater than 800° C., air flow 20 L/min, film 1.58 μm alprazolam, 6.33 μm pramipexole, 2.53 μm ciclesonide), the “purity of the resultant aerosol” value worked out at 85.6%.
